Results taken from PubChem BioAssay (NCI).
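A five-concentration, 48-hour dose response in 96-well plates underlies each endpoint, interpolated linearly between surrounding concentrations. At the GI50, growth is halved. Definition used: TGI = concentration required for complete inhibition of growth.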

How the values were obtained:
Test in all cases: NCI tumour cell line growth inhibition, 48 h
HT29 colon = system: HT29 colon
T-47D breast = system: T-47D breast
SF-295 CNS = system: SF-295 CNS
SF-268 CNS = system: SF-268 CNS
ACHN renal = system: ACHN renal
SF-539 CNS = system: SF-539 CNS
NCI-H522 lung = system: NCI-H522 lung
HOP-92 NSCLC = system: HOP-92 NSCLC
A498 renal = system: A498 renal
NCI-H460 lung = system: NCI-H460 lung
HCC-2998 colon = system: HCC-2998 colon
UO-31 renal = system: UO-31 renal
SR leukemia = system: SR leukemia
MOLT-4 leukemia = system: MOLT-4 leukemia
SNB-19 CNS = system: SNB-19 CNS
HOP-62 NSCLC = system: HOP-62 NSCLC
OVCAR-3 ovarian = system: OVCAR-3 ovarian
KM12 colon = system: KM12 colon
SK-OV-3 ovarian = system: SK-OV-3 ovarian
HL-60(TB) leukemia = system: HL-60(TB) leukemia
NCI-H23 lung = system: NCI-H23 lung
OVCAR-8 ovarian = system: OVCAR-8 ovarian
HCT-116 colon = system: HCT-116 colon
RXF 393 renal = system: RXF 393 renal
TK-10 renal = system: TK-10 renal
A549 NSCLC = system: A549 NSCLC
SW-620 colon = system: SW-620 colon
SK-MEL-28 melanoma = system: SK-MEL-28 melanoma
RPMI-8226 leukemia = system: RPMI-8226 leukemia
M14 melanoma = system: M14 melanoma
HCT-15 colon = system: HCT-15 colon
IGROV1 ovarian = system: IGROV1 ovarian
DU-145 prostate = system: DU-145 prostate
786-0 renal = system: 786-0 renal
CAKI-1 renal = system: CAKI-1 renal
K-562 leukemia = system: K-562 leukemia
HS 578T breast = system: HS 578T breast
NCI-H226 lung = system: NCI-H226 lung
NCI/ADR-RES ovarian = system: NCI/ADR-RES ovarian
COLO 205 colon = system: COLO 205 colon
U251 CNS = system: U251 CNS
MCF7 breast = system: MCF7 breast
EKVX NSCLC = system: EKVX NSCLC
OVCAR-4 ovarian = system: OVCAR-4 ovarian
MDA-MB-435 = system: MDA-MB-435
PC-3 prostate = system: PC-3 prostate
MDA-MB-231 breast = system: MDA-MB-231 breast
OVCAR-5 ovarian = system: OVCAR-5 ovarian
SNB-75 CNS = system: SNB-75 CNS
SK-MEL-2 melanoma = system: SK-MEL-2 melanoma
CCRF-CEM leukemia = system: CCRF-CEM leukemia
UACC-62 melanoma = system: UACC-62 melanoma
SK-MEL-5 melanoma = system: SK-MEL-5 melanoma
UACC-257 melanoma = system: UACC-257 melanoma
BT-549 breast = system: BT-549 breast
MALME-3M melanoma = system: MALME-3M melanoma
LOX IMVI melanoma = system: LOX IMVI melanoma
SN12C renal = system: SN12C renal

## CCCCN(CCCC)c1ccc(C(=NC(C)CCCN(CC)CC)c2ccc(N(C)C)cc2)cc1 (configuration not stated)
HT29 colon
  GI50: 580 nM
  TGI: 1580 nM
T-47D breast
  GI50: 809 nM
  TGI: 1890 nM
SF-295 CNS
  GI50: 880 nM
  TGI: 1730 nM
SF-268 CNS
  GI50: 864 nM
  TGI: 2060 nM
ACHN renal
  GI50: 935 nM
  TGI: 1890 nM
SF-539 CNS
  GI50: 899 nM
  TGI: 1720 nM
NCI-H522 lung
  GI50: 706 nM
  TGI: 1560 nM
HOP-92 NSCLC
  GI50: 609 nM
  TGI: 1710 nM
A498 renal
  GI50: 789 nM
  TGI: 2390 nM
NCI-H460 lung
  GI50: 842 nM
  TGI: 1640 nM
HCC-2998 colon
  GI50: 922 nM
  TGI: 1770 nM
UO-31 renal
  GI50: 713 nM
  TGI: 1420 nM
SR leukemia
  GI50: 708 nM
  TGI: 1820 nM
MOLT-4 leukemia
  GI50: 865 nM
  TGI: 2180 nM
SNB-19 CNS
  GI50: 1140 nM
  TGI: 2820 nM
HOP-62 NSCLC
  GI50: 829 nM
  TGI: 1630 nM
OVCAR-3 ovarian
  GI50: 846 nM
  TGI: 1810 nM
KM12 colon
  GI50: 965 nM
  TGI: 2330 nM
SK-OV-3 ovarian
  GI50: 1140 nM
  TGI: 2330 nM
HL-60(TB) leukemia
  GI50: 1010 nM
  TGI: 2030 nM
NCI-H23 lung
  GI50: 889 nM
  TGI: 1930 nM
OVCAR-8 ovarian
  GI50: 990 nM
  TGI: 2090 nM
HCT-116 colon
  GI50: 537 nM
  TGI: 1270 nM
RXF 393 renal
  GI50: 730 nM
  TGI: 1460 nM
TK-10 renal
  GI50: 1340 nM
  TGI: 3990 nM
A549 NSCLC
  GI50: 1010 nM
  TGI: 2570 nM
SW-620 colon
  GI50: 793 nM
  TGI: 1680 nM
SK-MEL-28 melanoma
  GI50: 939 nM
  TGI: 1920 nM
RPMI-8226 leukemia
  GI50: 950 nM
  TGI: 2190 nM
M14 melanoma
  GI50: 873 nM
  TGI: 1720 nM
HCT-15 colon
  GI50: 767 nM
  TGI: 1560 nM
IGROV1 ovarian
  GI50: 897 nM
  TGI: 1950 nM
DU-145 prostate
  GI50: 1570 nM
  TGI: 6040 nM
786-0 renal
  GI50: 705 nM
  TGI: 1430 nM
CAKI-1 renal
  GI50: 1170 nM
  TGI: 3410 nM
K-562 leukemia
  GI50: 153 nM
  TGI: 549 nM
HS 578T breast
  GI50: 884 nM
  TGI: 2050 nM
NCI-H226 lung
  GI50: 1180 nM
  TGI: 3060 nM
NCI/ADR-RES ovarian
  GI50: 893 nM
  TGI: 1940 nM
COLO 205 colon
  GI50: 850 nM
  TGI: 1690 nM
U251 CNS
  GI50: 810 nM
  TGI: 1580 nM
MCF7 breast
  GI50: 836 nM
  TGI: 1950 nM
EKVX NSCLC
  GI50: 1050 nM
  TGI: 2950 nM
OVCAR-4 ovarian
  GI50: 1090 nM
  TGI: 3340 nM
MDA-MB-435
  GI50: 783 nM
  TGI: 1570 nM
PC-3 prostate
  GI50: 885 nM
  TGI: 1930 nM
MDA-MB-231 breast
  GI50: 863 nM
  TGI: 1820 nM
OVCAR-5 ovarian
  GI50: 1310 nM
  TGI: 3470 nM
SNB-75 CNS
  GI50: 734 nM
  TGI: 1560 nM
SK-MEL-2 melanoma
  GI50: 814 nM
  TGI: 1810 nM
CCRF-CEM leukemia
  GI50: 1220 nM
  TGI: 3870 nM
UACC-62 melanoma
  GI50: 909 nM
  TGI: 1910 nM
SK-MEL-5 melanoma
  GI50: 806 nM
  TGI: 1500 nM
UACC-257 melanoma
  GI50: 915 nM
  TGI: 1830 nM
BT-549 breast
  GI50: 838 nM
  TGI: 1730 nM
MALME-3M melanoma
  GI50: 785 nM
  TGI: 1620 nM
LOX IMVI melanoma
  GI50: 775 nM
  TGI: 1460 nM

## Cc1[nH]c2ccccc2c1CCNCc1ccc(/C=C/C(=O)NO)cc1
HT29 colon
  GI50: < 10 nM
  TGI: 10600 nM
T-47D breast
  GI50: < 10 nM
  TGI: 34.4 nM
SF-295 CNS
  GI50: 14.6 nM
  TGI: 56.3 nM
SF-268 CNS
  GI50: 15.7 nM
  TGI: 60.5 nM
ACHN renal
  GI50: 18.3 nM
  TGI: 71.4 nM
SF-539 CNS
  GI50: 24.9 nM
  TGI: 2110 nM
NCI-H522 lung
  GI50: < 10 nM
  TGI: 32.4 nM
HOP-92 NSCLC
  GI50: < 10 nM
  TGI: < 10 nM
A498 renal
  GI50: < 10 nM
  TGI: 22 nM
NCI-H460 lung
  GI50: < 10 nM
  TGI: 838 nM
HCC-2998 colon
  GI50: 12.1 nM
  TGI: 35.3 nM
UO-31 renal
  GI50: 12.9 nM
  TGI: 63.7 nM
SR leukemia
  GI50: < 10 nM
MOLT-4 leukemia
  GI50: < 10 nM
SNB-19 CNS
  GI50: 24.4 nM
  TGI: 323 nM
HOP-62 NSCLC
  GI50: < 12.2 nM
  TGI: 69.7 nM
KM12 colon
  GI50: 19.3 nM
  TGI: 112 nM
SK-OV-3 ovarian
  GI50: 13.4 nM
  TGI: 41.2 nM
HL-60(TB) leukemia
  GI50: < 10 nM
  TGI: 3160 nM
NCI-H23 lung
  GI50: 24.6 nM
  TGI: 150 nM
OVCAR-8 ovarian
  GI50: < 10 nM
  TGI: 178 nM
HCT-116 colon
  GI50: < 10 nM
  TGI: 14.2 nM
RXF 393 renal
  GI50: < 10.4 nM
  TGI: 25 nM
TK-10 renal
  GI50: < 11.1 nM
  TGI: 45.3 nM
A549 NSCLC
  GI50: 15.8 nM
  TGI: 101 nM
SW-620 colon
  GI50: < 10 nM
  TGI: 21.9 nM
SK-MEL-28 melanoma
  GI50: < 11.5 nM
  TGI: 72.8 nM
RPMI-8226 leukemia
  GI50: < 12.3 nM
  TGI: 595 nM
M14 melanoma
  GI50: < 11.6 nM
  TGI: 111 nM
HCT-15 colon
  GI50: 67.6 nM
  TGI: 12900 nM
IGROV1 ovarian
  GI50: 16.8 nM
  TGI: 72.1 nM
DU-145 prostate
  GI50: < 10 nM
  TGI: 53.2 nM
786-0 renal
  GI50: 27.5 nM
  TGI: 490 nM
CAKI-1 renal
  GI50: 19.3 nM
  TGI: 52.4 nM
K-562 leukemia
  GI50: < 10 nM
  TGI: 83.3 nM
HS 578T breast
  GI50: < 10 nM
  TGI: 55.4 nM
NCI-H226 lung
  GI50: 30.5 nM
  TGI: 172 nM
NCI/ADR-RES ovarian
  GI50: 21.1 nM
  TGI: 267 nM
COLO 205 colon
  GI50: < 10.8 nM
  TGI: 21.8 nM
SN12C renal
  GI50: 27.2 nM
  TGI: 317 nM
U251 CNS
  GI50: < 10.8 nM
  TGI: 33.3 nM
MCF7 breast
  GI50: < 10 nM
  TGI: 795 nM
EKVX NSCLC
  GI50: 23 nM
  TGI: 1500 nM
OVCAR-4 ovarian
  GI50: 15 nM
  TGI: 58.5 nM
MDA-MB-435
  GI50: < 10 nM
  TGI: 50.2 nM
PC-3 prostate
  GI50: < 11.4 nM
  TGI: 2860 nM
MDA-MB-231 breast
  GI50: 28.4 nM
  TGI: 162 nM
OVCAR-5 ovarian
  GI50: < 10 nM
  TGI: 91.1 nM
SNB-75 CNS
  GI50: < 14.7 nM
  TGI: 2800 nM
SK-MEL-2 melanoma
  GI50: < 12 nM
  TGI: 53.2 nM
UACC-62 melanoma
  GI50: < 10 nM
  TGI: 22.9 nM
SK-MEL-5 melanoma
  GI50: < 11.3 nM
  TGI: 27.5 nM
UACC-257 melanoma
  GI50: < 10 nM
  TGI: 44.7 nM
BT-549 breast
  GI50: 213 nM
  TGI: 12300 nM
LOX IMVI melanoma
  GI50: 12.8 nM
  TGI: 30 nM
